# From the supplement of paper PMC8882468
# Test system: HCI-001 (organoid from a triple-negative breast cancer xenograft)
# Test: CTG-3D luminescence at 96 h relative to day-0 seeding control (ratio to day 0); higher = more growth / less cytotoxicity; PDxO 3D drug screen, 96 h, CTG-3D normalised to day-0 seeding control.
# Conditions: 100 µM; days in culture: 260
row,Compound,CTG-3D luminescence at 96 h
1,COc1cccc2c1C(=O)c1c(O)c3c(c(O)c1C2=O)C[C@@](O)(C(=O)CO)C[C@@H]3O[C@H]1C[C@H](N)[C@H](O)[C@H](C)O1 [doxorubicin],0.0518
2,O=C(O)C1(C(=O)O)CCC1.[NH2-].[NH2-].[Pt+2] [carboplatin],0.569
3,NC(=O)Nc1cc(-c2cccc(F)c2)sc1C(=O)N[C@H]1CCCNC1 [AZD7762],0.00469
4,Nc1ccn([C@@H]2O[C@H](CO)[C@@H](O)C2(F)F)c(=O)n1 [gemcitabine],0.302
5,CC1(C)CCC(c2ccc(Cl)cc2)=C(CN2CCN(c3ccc(C(=O)NS(=O)(=O)c4ccc(N[C@H](CCN5CCOCC5)CSc5ccccc5)c(S(=O)(=O)C(F)(F)F)c4)cc3)CC2)C1 [navitoclax],0.0822
6,CN(Cc1cnc2nc(N)nc(N)c2n1)c1ccc(C(=O)N[C@@H](CCC(=O)O)C(=O)O)cc1 [methotrexate],0.88
7,C=CCn1c(=O)c2cnc(Nc3ccc(N4CCN(C)CC4)cc3)nc2n1-c1cccc(C(C)(C)O)n1 [adavosertib],0.15
8,CC(C)(C(=O)NCC(F)(F)C(F)(F)F)C(=O)N[C@@H]1C(=O)Nc2ccccc2-c2ccccc21,1.15
9,C[C@@H]1COCCN1c1cc(C2([S@](C)(=N)=O)CC2)nc(-c2cc[nH]c3nccc2-3)n1 [ceralasertib],0.35
10,CCN1CCN(Cc2ccc(Nc3ncc(F)c(-c4cc(F)c5nc(C)n(C(C)C)c5c4)n3)nc2)CC1 [abemaciclib],0.00996

# Same assay, conditions: 100 µM; days in culture: 269
row,Compound,CTG-3D luminescence at 96 h
1,COc1cccc2c1C(=O)c1c(O)c3c(c(O)c1C2=O)C[C@@](O)(C(=O)CO)C[C@@H]3O[C@H]1C[C@H](N)[C@H](O)[C@H](C)O1 [doxorubicin],0.00519
2,O=C(O)C1(C(=O)O)CCC1.[NH2-].[NH2-].[Pt+2] [carboplatin],0.918
3,NC(=O)Nc1cc(-c2cccc(F)c2)sc1C(=O)N[C@H]1CCCNC1 [AZD7762],-0.00671
4,Nc1ccn([C@@H]2O[C@H](CO)[C@@H](O)C2(F)F)c(=O)n1 [gemcitabine],0.331
5,CC1(C)CCC(c2ccc(Cl)cc2)=C(CN2CCN(c3ccc(C(=O)NS(=O)(=O)c4ccc(N[C@H](CCN5CCOCC5)CSc5ccccc5)c(S(=O)(=O)C(F)(F)F)c4)cc3)CC2)C1 [navitoclax],0.124
6,CN(Cc1cnc2nc(N)nc(N)c2n1)c1ccc(C(=O)N[C@@H](CCC(=O)O)C(=O)O)cc1 [methotrexate],2.3
7,C=CCn1c(=O)c2cnc(Nc3ccc(N4CCN(C)CC4)cc3)nc2n1-c1cccc(C(C)(C)O)n1 [adavosertib],0.087
8,CC(C)(C(=O)NCC(F)(F)C(F)(F)F)C(=O)N[C@@H]1C(=O)Nc2ccccc2-c2ccccc21,1.78
9,C[C@@H]1COCCN1c1cc(C2([S@](C)(=N)=O)CC2)nc(-c2cc[nH]c3nccc2-3)n1 [ceralasertib],0.577
10,CCN1CCN(Cc2ccc(Nc3ncc(F)c(-c4cc(F)c5nc(C)n(C(C)C)c5c4)n3)nc2)CC1 [abemaciclib],0.0115

# Same assay, conditions: 100 µM; days in culture: 327
row,Compound,CTG-3D luminescence at 96 h
1,COc1cccc2c1C(=O)c1c(O)c3c(c(O)c1C2=O)C[C@@](O)(C(=O)CO)C[C@@H]3O[C@H]1C[C@H](N)[C@H](O)[C@H](C)O1 [doxorubicin],0.284
2,O=C(O)C1(C(=O)O)CCC1.[NH2-].[NH2-].[Pt+2] [carboplatin],0.592
3,NC(=O)Nc1cc(-c2cccc(F)c2)sc1C(=O)N[C@H]1CCCNC1 [AZD7762],0.00741
4,Nc1ccn([C@@H]2O[C@H](CO)[C@@H](O)C2(F)F)c(=O)n1 [gemcitabine],0.222
5,CC1(C)CCC(c2ccc(Cl)cc2)=C(CN2CCN(c3ccc(C(=O)NS(=O)(=O)c4ccc(N[C@H](CCN5CCOCC5)CSc5ccccc5)c(S(=O)(=O)C(F)(F)F)c4)cc3)CC2)C1 [navitoclax],-0.168
6,CN(Cc1cnc2nc(N)nc(N)c2n1)c1ccc(C(=O)N[C@@H](CCC(=O)O)C(=O)O)cc1 [methotrexate],1.35
7,C=CCn1c(=O)c2cnc(Nc3ccc(N4CCN(C)CC4)cc3)nc2n1-c1cccc(C(C)(C)O)n1 [adavosertib],0.182
8,CC(C)(C(=O)NCC(F)(F)C(F)(F)F)C(=O)N[C@@H]1C(=O)Nc2ccccc2-c2ccccc21,1.38
9,C[C@@H]1COCCN1c1cc(C2([S@](C)(=N)=O)CC2)nc(-c2cc[nH]c3nccc2-3)n1 [ceralasertib],0.479
10,CCN1CCN(Cc2ccc(Nc3ncc(F)c(-c4cc(F)c5nc(C)n(C(C)C)c5c4)n3)nc2)CC1 [abemaciclib],0.0169

# Same assay, conditions: 100 µM; days in culture: 346
row,Compound,CTG-3D luminescence at 96 h
1,COc1cccc2c1C(=O)c1c(O)c3c(c(O)c1C2=O)C[C@@](O)(C(=O)CO)C[C@@H]3O[C@H]1C[C@H](N)[C@H](O)[C@H](C)O1 [doxorubicin],0.182
2,O=C(O)C1(C(=O)O)CCC1.[NH2-].[NH2-].[Pt+2] [carboplatin],1.01
3,NC(=O)Nc1cc(-c2cccc(F)c2)sc1C(=O)N[C@H]1CCCNC1 [AZD7762],0.0108
4,Nc1ccn([C@@H]2O[C@H](CO)[C@@H](O)C2(F)F)c(=O)n1 [gemcitabine],0.259
5,CC1(C)CCC(c2ccc(Cl)cc2)=C(CN2CCN(c3ccc(C(=O)NS(=O)(=O)c4ccc(N[C@H](CCN5CCOCC5)CSc5ccccc5)c(S(=O)(=O)C(F)(F)F)c4)cc3)CC2)C1 [navitoclax],0.00509
6,CN(Cc1cnc2nc(N)nc(N)c2n1)c1ccc(C(=O)N[C@@H](CCC(=O)O)C(=O)O)cc1 [methotrexate],1.19
7,C=CCn1c(=O)c2cnc(Nc3ccc(N4CCN(C)CC4)cc3)nc2n1-c1cccc(C(C)(C)O)n1 [adavosertib],0.121
8,CC(C)(C(=O)NCC(F)(F)C(F)(F)F)C(=O)N[C@@H]1C(=O)Nc2ccccc2-c2ccccc21,1.57
9,C[C@@H]1COCCN1c1cc(C2([S@](C)(=N)=O)CC2)nc(-c2cc[nH]c3nccc2-3)n1 [ceralasertib],0.658
10,CCN1CCN(Cc2ccc(Nc3ncc(F)c(-c4cc(F)c5nc(C)n(C(C)C)c5c4)n3)nc2)CC1 [abemaciclib],0.0179

# Same assay, conditions: 100 µM; days in culture: 364
row,Compound,CTG-3D luminescence at 96 h
1,COc1cccc2c1C(=O)c1c(O)c3c(c(O)c1C2=O)C[C@@](O)(C(=O)CO)C[C@@H]3O[C@H]1C[C@H](N)[C@H](O)[C@H](C)O1 [doxorubicin],0.143
2,O=C(O)C1(C(=O)O)CCC1.[NH2-].[NH2-].[Pt+2] [carboplatin],0.829
3,NC(=O)Nc1cc(-c2cccc(F)c2)sc1C(=O)N[C@H]1CCCNC1 [AZD7762],0.00492
4,Nc1ccn([C@@H]2O[C@H](CO)[C@@H](O)C2(F)F)c(=O)n1 [gemcitabine],0.147
5,CC1(C)CCC(c2ccc(Cl)cc2)=C(CN2CCN(c3ccc(C(=O)NS(=O)(=O)c4ccc(N[C@H](CCN5CCOCC5)CSc5ccccc5)c(S(=O)(=O)C(F)(F)F)c4)cc3)CC2)C1 [navitoclax],0.00601
6,CN(Cc1cnc2nc(N)nc(N)c2n1)c1ccc(C(=O)N[C@@H](CCC(=O)O)C(=O)O)cc1 [methotrexate],0.716
7,C=CCn1c(=O)c2cnc(Nc3ccc(N4CCN(C)CC4)cc3)nc2n1-c1cccc(C(C)(C)O)n1 [adavosertib],0.0626
8,CC(C)(C(=O)NCC(F)(F)C(F)(F)F)C(=O)N[C@@H]1C(=O)Nc2ccccc2-c2ccccc21,0.937
9,C[C@@H]1COCCN1c1cc(C2([S@](C)(=N)=O)CC2)nc(-c2cc[nH]c3nccc2-3)n1 [ceralasertib],0.319
10,CCN1CCN(Cc2ccc(Nc3ncc(F)c(-c4cc(F)c5nc(C)n(C(C)C)c5c4)n3)nc2)CC1 [abemaciclib],0.0124

# Same assay, conditions: 625 fM; days in culture: 240
row,Compound,CTG-3D luminescence at 96 h
1,COc1cccc2c1C(=O)c1c(O)c3c(c(O)c1C2=O)C[C@@](O)(C(=O)CO)C[C@@H]3O[C@H]1C[C@H](N)[C@H](O)[C@H](C)O1 [doxorubicin],1.82
2,O=C(O)C1(C(=O)O)CCC1.[NH2-].[NH2-].[Pt+2] [carboplatin],1.36
3,NC(=O)Nc1cc(-c2cccc(F)c2)sc1C(=O)N[C@H]1CCCNC1 [AZD7762],1.14
4,Nc1ccn([C@@H]2O[C@H](CO)[C@@H](O)C2(F)F)c(=O)n1 [gemcitabine],1.22
5,CC1(C)CCC(c2ccc(Cl)cc2)=C(CN2CCN(c3ccc(C(=O)NS(=O)(=O)c4ccc(N[C@H](CCN5CCOCC5)CSc5ccccc5)c(S(=O)(=O)C(F)(F)F)c4)cc3)CC2)C1 [navitoclax],1.73
6,CN(Cc1cnc2nc(N)nc(N)c2n1)c1ccc(C(=O)N[C@@H](CCC(=O)O)C(=O)O)cc1 [methotrexate],1.72
7,C=CCn1c(=O)c2cnc(Nc3ccc(N4CCN(C)CC4)cc3)nc2n1-c1cccc(C(C)(C)O)n1 [adavosertib],1.51
8,CC(C)(C(=O)NCC(F)(F)C(F)(F)F)C(=O)N[C@@H]1C(=O)Nc2ccccc2-c2ccccc21,1.67
9,C[C@@H]1COCCN1c1cc(C2([S@](C)(=N)=O)CC2)nc(-c2cc[nH]c3nccc2-3)n1 [ceralasertib],1.21
10,CCN1CCN(Cc2ccc(Nc3ncc(F)c(-c4cc(F)c5nc(C)n(C(C)C)c5c4)n3)nc2)CC1 [abemaciclib],1.47

# Same assay, conditions: 625 fM; days in culture: 260
row,Compound,CTG-3D luminescence at 96 h
1,COc1cccc2c1C(=O)c1c(O)c3c(c(O)c1C2=O)C[C@@](O)(C(=O)CO)C[C@@H]3O[C@H]1C[C@H](N)[C@H](O)[C@H](C)O1 [doxorubicin],1.54
2,O=C(O)C1(C(=O)O)CCC1.[NH2-].[NH2-].[Pt+2] [carboplatin],0.928
3,NC(=O)Nc1cc(-c2cccc(F)c2)sc1C(=O)N[C@H]1CCCNC1 [AZD7762],1.07
4,Nc1ccn([C@@H]2O[C@H](CO)[C@@H](O)C2(F)F)c(=O)n1 [gemcitabine],1.77
5,CC1(C)CCC(c2ccc(Cl)cc2)=C(CN2CCN(c3ccc(C(=O)NS(=O)(=O)c4ccc(N[C@H](CCN5CCOCC5)CSc5ccccc5)c(S(=O)(=O)C(F)(F)F)c4)cc3)CC2)C1 [navitoclax],1.64
6,CN(Cc1cnc2nc(N)nc(N)c2n1)c1ccc(C(=O)N[C@@H](CCC(=O)O)C(=O)O)cc1 [methotrexate],1.26
7,C=CCn1c(=O)c2cnc(Nc3ccc(N4CCN(C)CC4)cc3)nc2n1-c1cccc(C(C)(C)O)n1 [adavosertib],1.14
8,CC(C)(C(=O)NCC(F)(F)C(F)(F)F)C(=O)N[C@@H]1C(=O)Nc2ccccc2-c2ccccc21,2.09
9,C[C@@H]1COCCN1c1cc(C2([S@](C)(=N)=O)CC2)nc(-c2cc[nH]c3nccc2-3)n1 [ceralasertib],1.32
10,CCN1CCN(Cc2ccc(Nc3ncc(F)c(-c4cc(F)c5nc(C)n(C(C)C)c5c4)n3)nc2)CC1 [abemaciclib],2.02

# Same assay, conditions: 625 fM; days in culture: 269
row,Compound,CTG-3D luminescence at 96 h
1,COc1cccc2c1C(=O)c1c(O)c3c(c(O)c1C2=O)C[C@@](O)(C(=O)CO)C[C@@H]3O[C@H]1C[C@H](N)[C@H](O)[C@H](C)O1 [doxorubicin],1.42
2,O=C(O)C1(C(=O)O)CCC1.[NH2-].[NH2-].[Pt+2] [carboplatin],1.75
3,NC(=O)Nc1cc(-c2cccc(F)c2)sc1C(=O)N[C@H]1CCCNC1 [AZD7762],1.59
4,Nc1ccn([C@@H]2O[C@H](CO)[C@@H](O)C2(F)F)c(=O)n1 [gemcitabine],1.53
5,CC1(C)CCC(c2ccc(Cl)cc2)=C(CN2CCN(c3ccc(C(=O)NS(=O)(=O)c4ccc(N[C@H](CCN5CCOCC5)CSc5ccccc5)c(S(=O)(=O)C(F)(F)F)c4)cc3)CC2)C1 [navitoclax],1.67
